Assay [1] deals with cyclase (membranes). Nature of the assay: Cyclase activation study (cAMP SPA immunoassay). The class given is biochemical. To be noted: cAMP in supernatant after 20 minutes incubation at 37° C. of membranes and peptides. Here is the method:
GLP-1[7–36]NH2 (GLP-1) was purchased from Bachem (Torrance, Calif.). All other peptides were prepared using synthesis methods such as those described therein. All chemicals were of the highest commercial grade. The cAMP SPA immunoassay was purchased from Amersham. The radioligands were purchased from New England Nuclear (Boston, Mass.). […] Cells were grown at 37° C. and 5% CO2/95% humidified air and medium was replaced every 2 to 3 days. Cells were grown to confluence then harvested and homogenized using on a Polytron homogenizer. Cell homogenates were stored frozen at −70° C. until used. Assay buffer contained 10 μM GTP, 0.75 mM ATP, 2.5 mM MgCl21 0.5 mM phosphocreatine, 12.5 U/ml creatine kinase, 0.4 mg/ml aprotinin, 1 μM IBMX in 50 mM HEPES, pH 7.4. Membranes and peptides were combined in […] of assay buffer in 96 well filter-bottom plates (Millipore Corp., Bedford, Mass.). […] Supernatant cAMP contents were quantitated by SPA immunoassay. […] The biological activity of a particular sample was expressed as an EC50 value, calculated as described above.

Assay [2] deals with C57BLKS/J-m-db mice. The assay is described as follows: Determination of blood glucose levels in db/db mice. Type of assay: in vivo. As to conditions: percent decrease in plasma glucose from baseline one hour after subcutaneous injection of 1 μg.
Assay [3] concerns the target GLP-1 receptor (on RINm5f membranes) (UniProt P32301).

The text below walks through data of patent US7220721B1, “Exendin agonist peptides” (Amylin Pharmaceuticals, Inc., priority 1997, dated 2007).

pEC50, pIC50: −log10 of the molar value.

GLP-1 receptor (on RINm5f membranes), sequence (P32301 22-463 limits assumed): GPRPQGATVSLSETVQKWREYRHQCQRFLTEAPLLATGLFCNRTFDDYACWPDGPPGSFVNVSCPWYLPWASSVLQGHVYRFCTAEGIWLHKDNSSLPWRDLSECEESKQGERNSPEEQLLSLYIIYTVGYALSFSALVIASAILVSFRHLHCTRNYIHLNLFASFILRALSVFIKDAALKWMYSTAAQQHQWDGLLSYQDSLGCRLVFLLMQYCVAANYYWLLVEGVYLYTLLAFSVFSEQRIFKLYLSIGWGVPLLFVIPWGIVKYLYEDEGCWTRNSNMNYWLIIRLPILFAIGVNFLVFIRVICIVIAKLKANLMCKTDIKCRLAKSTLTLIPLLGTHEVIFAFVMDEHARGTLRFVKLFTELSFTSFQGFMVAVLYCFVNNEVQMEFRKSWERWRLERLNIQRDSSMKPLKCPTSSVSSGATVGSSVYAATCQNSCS

As a reminder, the pEC50 is the EC50 on a negative log10 scale, so that one unit is a factor of ten. Read a high pEC50 as a low EC50. Consider `CC[C@H](C)[C@H](NC(=O)[C@H](Cc1ccccc1)NC(=O)[C@H](CC(C)C)NC(=O)[C@H](CCCNC(=N)N)NC(=O)[C@@H](NC(=O)[C@H](C)NC(=O)[C@H](CCC(=O)O)NC(=O)[C@H](CCC(=O)O)NC(=O)[C@H](CCC(=O)O)NC(=O)[C@H](CC(C)C)NC(=O)[C@H](CCC(N)=O)NC(=O)[C@H](CCCCN)NC(=O)[C@H](CO)NC(=O)[C@H](CC(C)C)NC(=O)[C@H](CC(=O)O)NC(=O)[C@H](CO)NC(=O)[C@@H](NC(=O)[C@H](Cc1ccccc1)NC(=O)[C@@H](NC(=O)CNC(=O)[C@H](CCC(=O)O)NC(=O)CNC(=O)[C@H](C)N)[C@@H](C)O)[C@@H](C)O)C(C)C)C(=O)N[C@@H](CCC(=O)O)C(=O)N[C@@H](Cc1ccccc1)C(=O)N[C@@H](CC(C)C)C(=O)N[C@@H](CCCCN)C(=O)N[C@@H](CC(N)=O)C(N)=O` [Compound 1], for which the pEC50 in assay [1] was < 6.00. For the same compound, the “% drop in glucose” value in assay [2] was determined as 40%.
On to `CC[C@H](C)[C@H](NC(=O)[C@H](Cc1ccccc1)NC(=O)[C@H](CC(C)C)NC(=O)[C@H](CCCNC(=N)N)NC(=O)[C@@H](NC(=O)[C@H](C)NC(=O)[C@H](CCC(=O)O)NC(=O)[C@H](CCC(=O)O)NC(=O)[C@H](CCC(=O)O)NC(=O)[C@H](CC(C)C)NC(=O)[C@H](CCC(N)=O)NC(=O)[C@H](CCCCN)NC(=O)[C@H](CO)NC(=O)[C@H](CC(C)C)NC(=O)[C@H](CC(=O)O)NC(=O)[C@H](CO)NC(=O)[C@@H](NC(=O)[C@H](Cc1ccccc1)NC(=O)[C@@H](NC(=O)CNC(=O)[C@H](C)NC(=O)CNC(=O)[C@@H](N)Cc1c[nH]cn1)[C@@H](C)O)[C@@H](C)O)C(C)C)C(=O)N[C@@H](CCC(=O)O)C(=O)N[C@@H](Cc1ccccc1)C(=O)N[C@@H](CC(C)C)C(=O)N[C@@H](CCCCN)C(=O)N[C@@H](CC(N)=O)C(N)=O` [Compound 2], for which, in assay [1], the pEC50 was < 5.00. In assay [2], the “% drop in glucose” value was determined as 41%.
On to `CC[C@H](C)[C@H](NC(=O)[C@H](Cc1ccccc1)NC(=O)[C@H](CC(C)C)NC(=O)[C@H](CCCNC(=N)N)NC(=O)[C@@H](NC(=O)[C@H](C)NC(=O)[C@H](CCC(=O)O)NC(=O)[C@H](CCC(=O)O)NC(=O)[C@H](CCC(=O)O)NC(=O)[C@H](CC(C)C)NC(=O)[C@H](CCC(N)=O)NC(=O)[C@H](CCCCN)NC(=O)[C@H](CO)NC(=O)[C@H](CC(C)C)NC(=O)[C@H](CC(=O)O)NC(=O)[C@H](CO)NC(=O)[C@@H](NC(=O)[C@H](Cc1ccccc1)NC(=O)[C@@H](NC(=O)[C@H](C)NC(=O)[C@H](CCC(=O)O)NC(=O)CNC(=O)[C@@H](N)Cc1c[nH]cn1)[C@@H](C)O)[C@@H](C)O)C(C)C)C(=O)N[C@@H](CCC(=O)O)C(=O)N[C@@H](Cc1ccccc1)C(=O)N[C@@H](CC(C)C)C(=O)N[C@@H](CCCCN)C(=O)N[C@@H](CC(N)=O)C(N)=O` [Compound 3], for which the pEC50 in assay [1] is < 5.00. In addition, the “% drop in glucose” value in assay [2] is given as 32%.
As for `CC[C@H](C)[C@H](NC(=O)[C@H](Cc1ccccc1)NC(=O)[C@H](CC(C)C)NC(=O)[C@H](CCCNC(=N)N)NC(=O)[C@@H](NC(=O)[C@H](C)NC(=O)[C@H](CCC(=O)O)NC(=O)[C@H](CCC(=O)O)NC(=O)[C@H](CCC(=O)O)NC(=O)[C@H](CC(C)C)NC(=O)[C@H](CCC(N)=O)NC(=O)[C@H](CCCCN)NC(=O)[C@H](CO)NC(=O)[C@H](CC(C)C)NC(=O)[C@H](C)NC(=O)[C@H](CO)NC(=O)[C@@H](NC(=O)[C@H](Cc1ccccc1)NC(=O)[C@@H](NC(=O)CNC(=O)[C@H](CCC(=O)O)NC(=O)CNC(=O)[C@@H](N)Cc1c[nH]cn1)[C@@H](C)O)[C@@H](C)O)C(C)C)C(=O)N[C@@H](CCC(=O)O)C(=O)N[C@@H](Cc1ccccc1)C(=O)N[C@@H](CC(C)C)C(=O)N[C@@H](CCCCN)C(=O)N[C@@H](CC(N)=O)C(N)=O` [Compound 4], in assay [1], the pEC50 was < 5.00. For the same compound, the “% drop in glucose” value in assay [2] was found to be 42%.
Broadly, the pIC50 is the IC50 on a negative log10 scale, so that one unit is a factor of ten. In assay [3], Exendin-4 [SEQ. ID. NO. 2] (peptide) showed a pIC50 of 9.15.
